Measurements from patent US20070280938A1, “Peptides Derived from Natural Cytotoxicity Receptors and Methods of Use Thereof” (YISSUM RESEARCH AND DEVELOPMENT COMPANY OF THE HEBREW …, priority 2003, published 2007).
Entries after “also recorded” stand apart in the source; their conditions may differ.

What was measured:
NKp46D2-Ig [1] = biological target: T1, NKp46D2-Ig (Homo sapiens, UniProt O76036); assay: Inhibition of NKp46D2-Ig binding to tumor cells by premixed saccharides (flow cytometry); conditions: for Inhibition of binding of NKp46D2-Ig to tumor cells: cell line not specified; for Inhibition of binding of NKp46D2-Ig: HeLa and PC-3, FIGS. 2B, 2C
T1 construct: residues 101-235 (D2) of the mature NKp46 protein were PCR amplified; CD5 leader peptide (with added Met start codon) (N); made in house
Protocol: (§1) Cells were incubated with the various fusion-Igs for 2 h at 4° C., washed and stained with FITC-conjugated-F(ab′)2-Goat-anti-human-IgG-Fcy (109-096-098, Jackson ImmunoResearch, West Grove, Pa.). Staining and washing buffer consisted of 0.5% (w/v) BSA and 0.05% sodium azide in PBS. Staining of CHO and mutant CHO cells was carried out with 2% FCS instead of bovine serum albumin (BSA) in the different buffers. Propidium iodide (PI) was added prior to reading for exclusion of dead cells. Flow cytometry was performed using a FACSCalibur flow cytometer (Becton Dickinson, Mountain View, Calif.). Data files were acquired and analyzed using BD CELLQuest™ 3.3 software.
(§2) For most binding inhibition experiments, 20 μg of fusion-Ig were premixed with the GAG and added to cells for staining as above. In all experiments, each sample was stained twice in different wells. When results are presented as MFI (median fluorescence intensity), average MFI∓SD of the duplicate staining is shown to reveal consistency of staining procedure. Human IgG1 (hIgG1 kappa, PHP010) was purchased from Serotec, Oxford, UK. Staining with the anti-heparin/heparan sulfate antibody HS4E4 was previously described (35).

NKp30-Ig [2] = biological target: T2, NKp30-Ig (Homo sapiens, UniProt O14931, P25L); assay: Inhibition of NKp30-Ig binding to tumor cells by premixed saccharides (flow cytometry)
T2 construct: made in house
Protocol: as §1, §2

LIR1-Ig = biological target: T3, LIR1-Ig (Homo sapiens, UniProt Q8NHL6); assay: Effect of premixed saccharides on LIR1-Ig binding to HeLa cells (flow cytometry); conditions: Glyc-PAA mixed with Ig-fusion protein, FIG. 1A
T3 construct: made in house
Protocol: as §1, §2

HeLa cells [3] = assay: Lysis of HeLa cells by primary NK lines (cytotoxicity assay); format: cell-based, human; conditions: FIG. 6A
Protocol: The cytotoxic activity of NK lines against the various targets was assessed in 5-hr 35S-release assays and in 4-hr Eu release time-resolved fluorescence assays, as previously described (20). In experiments where carbohydrates were included, NK cells were first mixed with the carbohydrates and then added to target cells. […] Each point represents the average of duplicate/triplicate values.
To test the role of NKp46 and NKp30 recognition of carbohydrates in NK lysis, the lysis of HeLa cells by NKs in the presence of Glyc-PAA was studied.

NKp30-Ig [4] = biological target: T4, NKp30-Ig (Homo sapiens, UniProt O14931); assay: Inhibition of NKp30-Ig binding to tumor cells by premixed saccharides (flow cytometry); conditions: cell line not specified
T4 construct: made in house
Protocol: as §1, §2

NKp46D2-Ig [5] = assay: Treatment of tumor cells (GAG-degrading enzymes, glycosylation or GPI-anchor blockers) then staining with NKp46D2-Ig; format: cell-based, human
Protocol: as §1
(§3) Tumor cells (10^6) were washed twice in PBS, resuspended in 1ml reaction buffer alone (mock) or reaction buffer containing one of the following GAG-degrading enzymes (Sigma): keratanase (0.94 u/ml, K-2876), heparin lyase I (1.56 u/ml, H-2519) and heparin lyase III (1.25 u/ml, H-8891). Reaction buffer consisted of 1% (w/v) BSA, 1 μg/ml leupeptin and 10 u/ml aprotinin in PBS. Cells were incubated with enzyme for 60 min at 37° C., washed two times with PBS and stained with fusion-Igs as above.
(§4) The involvement of cell membrane-associated GAGs in the binding of NKp46D2-Ig and NKp30-Ig to their cellular ligands was examined. […]

NKp30-Ig [6] = assay: Treatment of tumor cells (GAG-degrading enzymes, glycosylation or GPI-anchor blockers) then staining with NKp30-Ig; format: cell-based, human
Protocol: as §1, §3, §4

HeLa cells [7] = assay: Staining of HeLa cells with fusion-Igs (flow cytometry); format: binding, human
Protocol: as §1

EB-SP = assay: Staining of EB-SP cells expressing cell-surface heparanase with fusion-Igs; format: binding, murine; conditions: as compared to parental EB or EB-mock transfected
Protocol: as §1
The EB T lymphoma cell line and EB-SP cells that express a functional heparanase on the cell surface (16) were stained with NKp46D2-Ig. […] An alternative interpretation is that the binding is to a cell-surface molecule associated with heparan sulfate. […] Membrane-associated heparan sulfate proteoglycans (HSPGs) can be divided into two families: glypicans, which are attached to the plasma membrane via glycosylphosphatidylinositol (GPI) anchors, and syndecans, which are transmembrane proteins (23). The involvement of GPI-anchored proteins in the binding of NKp30-Ig and NKp46D2-Ig to tumor cells was examined. Treatment of cells with D-mannosamine (white bars) inhibits GPI-anchor formation.

[8] = test system: mutant CHO cells lacking HSPG; assay: Binding to mutant CHO cells lacking HSPG; conditions: as compared to wt CHO cells; FIG. 7A
Protocol: as §1
To further test the role of NKp46 and NKp30 recognition of carbohydrates in NK lysis, the lysis of CHO mutants lacking HSPG was examined. […] Thus, reduction in binding of NKp46-D2-Ig and NKp30-Ig to tumor cells lacking HSPG is correlated with reduced lysis of these cells by NK cells.

IV-infected cells = assay: Binding of wild type and mutated NKp46D2 fusion proteins to IV-infected cells; conditions: FIG. 10
Protocol: as §1
Based on the observations described above, certain site-directed mutations were made in NKp46D2 (Lys 157, Arg 160, His 163 and Arg 166; 4 point mutations) or (Lys 157, Arg 160, His 163, Arg 166, and Lys 170; 5 point mutations) into hydrophilic, neutral, amino acids with residues of similar size and to compare the ability of the mutant and the wild type receptors to bind heparin/heparan sulfate. Two constructs were prepared: Q4 (K157Q, R160Q, H163Q, and R166Q) and Q4T1 (K157Q, R160Q, H163Q, R166Q, and K170T). The mutated referred to herein as SEQ ID NO:29 SEQ ID NO:30.. Corresponding fusion proteins were prepared (NKp46D2-Q4-Ig and NKp46D2-Q4T1-Ig) and compared to NKp46D2-Ig.

[9] = Glyc-PAA mixed with Ig-fusion protein, HeLa cells, FIG. 1A
[10] = tumor cells treated before staining
[11] = HeLa cells pretreated with 40mM D-mannosamine overnight, FIG. 4D
[12] = Glyc-PAA premix, inconsistent inhibition phenotype

T1 sequence (O76036 with tags, fused parts or gaps isoform O76036-6): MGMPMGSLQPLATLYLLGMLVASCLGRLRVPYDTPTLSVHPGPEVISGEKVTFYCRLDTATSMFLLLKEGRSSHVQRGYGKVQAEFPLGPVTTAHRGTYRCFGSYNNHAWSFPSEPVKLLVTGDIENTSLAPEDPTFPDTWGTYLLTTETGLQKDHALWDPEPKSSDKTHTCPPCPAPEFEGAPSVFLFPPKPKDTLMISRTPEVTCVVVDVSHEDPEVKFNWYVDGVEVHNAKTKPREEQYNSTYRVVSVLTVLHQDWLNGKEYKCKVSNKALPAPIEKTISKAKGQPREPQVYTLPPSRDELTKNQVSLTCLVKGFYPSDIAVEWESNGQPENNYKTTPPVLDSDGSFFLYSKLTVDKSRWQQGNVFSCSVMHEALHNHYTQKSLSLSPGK
T4 sequence (O14931 with tags, fused parts or gaps P25L): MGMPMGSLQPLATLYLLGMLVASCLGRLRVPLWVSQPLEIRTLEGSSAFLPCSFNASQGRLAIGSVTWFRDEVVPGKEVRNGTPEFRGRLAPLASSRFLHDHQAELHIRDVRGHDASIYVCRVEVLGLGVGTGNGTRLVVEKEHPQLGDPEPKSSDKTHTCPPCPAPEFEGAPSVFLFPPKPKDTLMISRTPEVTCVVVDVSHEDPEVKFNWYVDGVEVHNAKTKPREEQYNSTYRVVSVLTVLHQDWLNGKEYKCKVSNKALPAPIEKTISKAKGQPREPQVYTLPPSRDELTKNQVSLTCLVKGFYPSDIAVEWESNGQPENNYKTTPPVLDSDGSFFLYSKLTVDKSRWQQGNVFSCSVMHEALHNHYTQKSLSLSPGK
T2 sequence (O14931 with tags, fused parts or gaps P25L): as above
T3 sequence (Q8NHL6 with tags, fused parts or gaps limits assumed): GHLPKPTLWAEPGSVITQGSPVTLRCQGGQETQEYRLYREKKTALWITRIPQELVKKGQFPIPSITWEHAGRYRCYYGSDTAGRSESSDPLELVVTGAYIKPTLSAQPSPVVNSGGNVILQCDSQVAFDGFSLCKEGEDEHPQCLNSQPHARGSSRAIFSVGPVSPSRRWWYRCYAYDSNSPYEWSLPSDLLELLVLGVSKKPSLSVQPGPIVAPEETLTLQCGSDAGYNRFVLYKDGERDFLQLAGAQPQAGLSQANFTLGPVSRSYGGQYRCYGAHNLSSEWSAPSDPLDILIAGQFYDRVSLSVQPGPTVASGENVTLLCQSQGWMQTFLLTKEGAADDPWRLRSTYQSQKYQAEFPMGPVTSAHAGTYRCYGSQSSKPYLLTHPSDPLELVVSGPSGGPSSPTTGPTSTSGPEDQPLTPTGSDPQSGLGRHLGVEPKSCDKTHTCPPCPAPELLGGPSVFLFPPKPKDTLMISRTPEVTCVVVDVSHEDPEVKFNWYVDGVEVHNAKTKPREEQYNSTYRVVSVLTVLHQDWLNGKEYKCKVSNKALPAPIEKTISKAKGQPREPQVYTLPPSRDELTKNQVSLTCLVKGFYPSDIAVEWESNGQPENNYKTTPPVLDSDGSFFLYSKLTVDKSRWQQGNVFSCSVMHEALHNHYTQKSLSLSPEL

In the case of 6-O-sulfo-LacNAc-PAA, the “Inhibition of binding of NKp46D2-Ig to HeLa cells” value (NKp46D2-Ig [1]; [9]) is reported as “inhibited binding”, the “Effect on binding of the fusion proteins after pre-incubation of the cells” value (NKp46D2-Ig [1]; cells pre-incubated with the saccharide, followed by wash and application of the fusion proteins) is reported as “did not affect the binding” and the “Inhibition of binding of NKp30-Ig to HeLa cells” value (NKp30-Ig [2]; [9]) is reported as “inhibited”. The “Inhibition of binding of LIR1-Ig to HeLa cells” value (LIR1-Ig) was “not the positive binding of LIR1-Ig”, the “Reduction of lysis of HeLa cells by NK” value (HeLa cells [3]; 0.9 mM) was “significant reduction of lysis” and the “Reduction of lysis of HeLa cells by NK” value (HeLa cells [3]; agent present during lysis assay, Glyc-PAA 0.225 to 0.9 mM, E:T 50:1, 4 h) was “two fold”.

For 4 ′, 6′-di-O-sulfo-LacNAc, the “Inhibition of binding of NKp46D2-Ig to tumor cells” value (NKp46D2-Ig [1]) was “did not inhibit binding” and the “Inhibition of binding of NKp30-Ig to tumor cells” value (NKp30-Ig [4]) was “did not inhibit binding”.

For CC(=O)N[C@H]1[C@@H](OCc2ccccc2)O[C@H](CO)[C@H](O)[C@@H]1O [abenzyl-GalNAc], the “Effect of cell treatment on binding of NKp46D2-Ig” value (NKp46D2-Ig [5]; [10]) was “significantly reduced the binding” and the “Effect of cell treatment on binding of NKp30-Ig” value (NKp30-Ig [6]; [10]) was “significantly reduced the binding”.

hyaluronic acid was tested, and the “Inhibition of binding of NKp46D2-Ig” value (NKp46D2-Ig [1]; incremental concentrations up to 10 μg/ml) was “did not inhibit binding”.

N[C@@H]1C(O)O[C@H](CO)[C@@H](O)[C@@H]1O (stereo partly drawn) [D-mannosamine] was tested, and the “Reduction of binding of NKp46D2-Ig” value (NKp46D2-Ig [5]; [11]) was 4 fold and the “Reduction of binding of NKp30-Ig” value (NKp30-Ig [6]; [11]) was 2 fold.

6′-O-sulfo-LacNAc was tested, and the “reduction in binding of NKp46D2-Ig” value (NKp46D2-Ig [1]; [12]) was “up to 25%” and the “reduction in binding of NKp30-Ig” value (NKp30-Ig [2]; [12]) was “up to 25%”.

With N-desulfated heparin the “Inhibition of NKp46D2-Ig binding by modified heparins” value (NKp46D2-Ig [1]; heparins modified in sulfation or acetylation, HeLa cells, FIG. 2D) was “potent inhibitor”.

For 3′-O-sulfo-LacNAc, the “Inhibition of binding of NKp46D2-Ig to tumor cells” value (NKp46D2-Ig [1]) was “did not inhibit binding” and the “Inhibition of binding of NKp30-Ig to tumor cells” value (NKp30-Ig [4]) was “did not inhibit binding”.

heparan sulfate was tested, and the “Inhibition of binding of NKp46D2-Ig” value (NKp46D2-Ig [1]; 0.1 μg/ml) was “inhibit binding”, the “Inhibition of binding of NKp46D2-Ig to tumor cells” value (NKp46D2-Ig [1]) was “directly inhibits the binding; also recorded: potent inhibitors” and the “Inhibition of binding of NKp30-Ig to tumor cells” value (NKp30-Ig [4]) was “directly inhibits the binding; also recorded: potent inhibitors”.

B1: NKp46D2-Ig: truncated fusion protein: D2 of NKp46 with CD5 leader fused to Fc portion of human IgG1 (protein)
chain: MAWMLLLILIMVHPGSCALWVSQPPEIRTLEGSSAFLPCSFNASQGRLAIGSVTWFRDEVVPGKEVRNGTPEFRGRLAPLASSRFLHDHQAELHIRDVRGHDASIYVCRVEVLGLGVGTGNGTRLVVEKEHPQLGAGTVLLLRAGFYAVSFLSVAVGSTVYYQGKCLTWKGPRRQLPAVVPAPLPPPCGSSAHLLPPVPGG
modifications: homo sapiens
With B1 the “Binding to HeLa cells” value (HeLa cells [7]) was “bound well”, the “Reduction of staining of EB-SP” value (EB-SP; FIG. 4C) was 50% and the “Binding to mutant CHO cells lacking HSPG” value [8] was “significantly reduced”. The “Binding to IV-infected cells” value (IV-infected cells) was “bind similarly”.

B2: NKp30-Ig: protein conjugate comprising CD5 leader sequence and NKp30 D domain fused to Fc domain (protein)
chain: MAWRALHPLLLLLLLFPGSQAQSKAQVLQSVAGQTLTVRCQYPPTGSLYEKKGWCKEASALVCIRLVTSSKPRTMAWTSRFTIWDDPDAGFFTVTMTDLREEDSGHYWCRIYRPSDNSVSKSVRFYLVVSPASASTQTPWTPRDLVSSQTQTQSCVPPTAGARQAPESPSTIPVPSQPQNSTLRPGPAAPIALVPVFCGLLVAKSLVLSALLVWWGDIWWKTVMELRSLDTQKATCHLQQVTDLPWTSVSSPVEREILYHTVARTKISDDDDEHTL
modifications: homo sapiens
For B2, the “Binding to HeLa cells” value (HeLa cells [7]) was “bound well”, the “Staining of EB-SP compared with EB” value (EB-SP) was “same phenotype” and the “Binding to mutant CHO cells lacking HSPG” value [8] was “significantly reduced”.
